From ChEMBL document CHEMBL5120795, “Small-Molecule Inhibitors of Tankyrases as Prospective Therapeutics for Cancer” (J Med Chem, 2022)
Converted amounts (≈) assume the structure as drawn. Values belong to the molecule of their own block, whether it stands above or below them.

How the values were obtained:
[1] = Oral bioavailability in mouse relative to control; format: ADME, organism-based; details: in vivo
physchem = details: aqueous, pH 7.4
[2] = target: T1, Poly [ADP-ribose] polymerase 1 (Homo sapiens, UniProt P09874); experiment: Inhibition of PARP1 (unknown origin)
[3] = Stability in mouse liver microsomes assessed as compound remaining measured after 30 mins relative to control; format: ADME, Microsome; details: read-out: Stability
SW480 [4] = experiment: Antitumor activity against human SW480 cells xenografted in mouse assessed as reduction in tumor size at 300 mg/kg, IP relative to control; format: functional; design: scale not given: the % may be the effect or the level left
SW480 [5] = experiment: Antitumor activity against human SW480 cells xenografted in mouse assessed as reduction in tumor size at 150 mg/kg, IP relative to control; format: functional; design: scale not given: the % may be the effect or the level left
[6] = target: T2, Poly [ADP-ribose] polymerase 2 (Homo sapiens, UniProt Q9UGN5); experiment: Inhibition of PAPR2 (unknown origin)
[7] = Toxicity in mouse xenografted with COLO 320DM cells assessed as reduction in body weight at 60 mg/kg, po daily relative to control; format: organism-based; design: scale not given: the % may be the effect or the level left; details: in vivo
[8] = Toxicity in mouse xenografted with COLO 320DM cells assessed as reduction in body weight at 30 mg/kg, ip daily relative to control; format: organism-based; design: scale not given: the % may be the effect or the level left; details: in vivo
[9] = target: T3, Poly [ADP-ribose] polymerase tankyrase-2 (Homo sapiens, UniProt Q9H2K2); experiment: Inhibition of TNKS2 (unknown origin)
T3 sequence (Q9H2K2 whole entry): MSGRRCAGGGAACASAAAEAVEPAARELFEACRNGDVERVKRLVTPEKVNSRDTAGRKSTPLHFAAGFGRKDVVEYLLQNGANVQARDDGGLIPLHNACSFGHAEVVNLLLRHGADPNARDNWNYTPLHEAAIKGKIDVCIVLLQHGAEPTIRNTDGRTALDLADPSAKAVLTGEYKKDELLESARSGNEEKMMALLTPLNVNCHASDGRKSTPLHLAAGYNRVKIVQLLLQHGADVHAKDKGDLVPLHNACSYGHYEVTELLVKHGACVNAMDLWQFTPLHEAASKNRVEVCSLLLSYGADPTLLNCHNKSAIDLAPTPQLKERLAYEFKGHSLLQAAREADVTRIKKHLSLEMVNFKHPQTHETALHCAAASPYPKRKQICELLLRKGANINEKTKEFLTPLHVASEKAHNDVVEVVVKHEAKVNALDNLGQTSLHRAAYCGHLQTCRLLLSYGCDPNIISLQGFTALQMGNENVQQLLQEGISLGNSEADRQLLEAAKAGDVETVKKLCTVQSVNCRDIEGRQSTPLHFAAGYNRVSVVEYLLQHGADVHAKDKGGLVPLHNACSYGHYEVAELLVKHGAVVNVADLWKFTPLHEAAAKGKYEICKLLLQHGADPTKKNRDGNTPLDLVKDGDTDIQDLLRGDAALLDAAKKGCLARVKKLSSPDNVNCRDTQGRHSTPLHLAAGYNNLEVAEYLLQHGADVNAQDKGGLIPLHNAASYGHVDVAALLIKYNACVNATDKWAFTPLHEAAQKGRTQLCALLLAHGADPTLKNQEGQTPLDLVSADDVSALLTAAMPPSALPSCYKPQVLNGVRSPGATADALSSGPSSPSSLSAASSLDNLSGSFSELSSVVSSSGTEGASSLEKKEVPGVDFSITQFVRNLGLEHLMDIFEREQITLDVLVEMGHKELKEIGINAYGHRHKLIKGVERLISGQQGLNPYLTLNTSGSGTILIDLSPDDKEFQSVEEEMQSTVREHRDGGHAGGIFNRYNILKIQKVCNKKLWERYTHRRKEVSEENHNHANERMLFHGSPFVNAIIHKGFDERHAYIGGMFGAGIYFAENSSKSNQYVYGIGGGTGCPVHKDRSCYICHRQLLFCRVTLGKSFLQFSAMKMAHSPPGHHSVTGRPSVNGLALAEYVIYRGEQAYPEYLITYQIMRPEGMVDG

[10] = Disruption of ARC5 domain of TNKS1 (unknown origin)/USP25 (unknown origin) protein interaction assessed as inhibition constant; design: species or system Homo sapiens
[11] = target: T3, Poly [ADP-ribose] polymerase tankyrase-2; experiment: Binding affinity to ARC4 domain at TNKS2 (unknown origin) assessed as dissociation constant
[12] = target: T4, Poly [ADP-ribose] polymerase tankyrase-2 (Homo sapiens) (UniProt Q9H2K2); experiment: Inhibition of TNKS2 (unknown origin) at 1 uM relative to control
T4 sequence (whole entry): T3 sequence (Q9H2K2 whole entry)

[13] = target: T1, Poly [ADP-ribose] polymerase 1; experiment: Inhibition of PARP1 (unknown origin) at 1 uM relative to control
[14] = target: T5, Poly [ADP-ribose] polymerase tankyrase-1 (Homo sapiens) (UniProt O95271); experiment: Inhibition of TNKS1 (unknown origin) at 1 uM relative to control
T5 sequence (whole entry): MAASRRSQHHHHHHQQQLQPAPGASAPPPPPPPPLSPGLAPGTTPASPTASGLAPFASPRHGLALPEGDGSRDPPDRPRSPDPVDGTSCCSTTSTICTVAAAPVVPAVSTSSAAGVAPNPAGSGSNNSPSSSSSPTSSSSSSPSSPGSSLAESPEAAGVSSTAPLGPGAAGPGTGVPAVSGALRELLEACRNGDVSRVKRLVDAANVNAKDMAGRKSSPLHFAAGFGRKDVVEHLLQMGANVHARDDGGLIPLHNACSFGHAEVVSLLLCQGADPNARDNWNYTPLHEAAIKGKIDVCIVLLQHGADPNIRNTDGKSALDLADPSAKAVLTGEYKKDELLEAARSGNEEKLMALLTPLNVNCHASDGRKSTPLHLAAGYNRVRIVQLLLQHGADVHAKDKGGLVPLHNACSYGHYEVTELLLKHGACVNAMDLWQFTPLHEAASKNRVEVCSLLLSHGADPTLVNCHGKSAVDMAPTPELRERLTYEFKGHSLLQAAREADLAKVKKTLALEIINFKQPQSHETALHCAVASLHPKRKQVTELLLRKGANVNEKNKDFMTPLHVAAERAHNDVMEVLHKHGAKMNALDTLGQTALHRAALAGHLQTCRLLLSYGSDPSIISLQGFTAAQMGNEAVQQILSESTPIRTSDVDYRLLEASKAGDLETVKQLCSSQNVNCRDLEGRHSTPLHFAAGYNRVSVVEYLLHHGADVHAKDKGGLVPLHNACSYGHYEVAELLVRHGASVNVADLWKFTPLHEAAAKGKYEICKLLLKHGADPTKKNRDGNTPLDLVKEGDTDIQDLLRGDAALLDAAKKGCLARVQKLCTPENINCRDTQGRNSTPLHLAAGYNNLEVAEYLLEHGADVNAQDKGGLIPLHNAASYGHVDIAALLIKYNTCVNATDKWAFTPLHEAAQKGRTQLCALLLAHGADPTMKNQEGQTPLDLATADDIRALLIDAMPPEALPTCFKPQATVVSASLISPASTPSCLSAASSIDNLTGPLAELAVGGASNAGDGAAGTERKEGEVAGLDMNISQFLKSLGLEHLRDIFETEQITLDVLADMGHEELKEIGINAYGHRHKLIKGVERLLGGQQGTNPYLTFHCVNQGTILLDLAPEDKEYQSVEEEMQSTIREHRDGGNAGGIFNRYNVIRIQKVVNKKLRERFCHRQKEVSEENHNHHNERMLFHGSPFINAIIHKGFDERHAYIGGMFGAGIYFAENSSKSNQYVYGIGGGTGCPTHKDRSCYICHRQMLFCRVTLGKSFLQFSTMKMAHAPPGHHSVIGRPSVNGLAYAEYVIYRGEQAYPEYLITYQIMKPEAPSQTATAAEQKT

[15] = target: T2, Poly [ADP-ribose] polymerase 2; experiment: Inhibition of PARP2 (unknown origin) at 1 uM relative to control
[16] = target: T6, Poly [ADP-ribose] polymerase tankyrase-1 (Homo sapiens, UniProt O95271); experiment: Inhibition of TNKS1 (unknown origin)
T6 sequence (O95271 whole entry): T5 sequence (whole entry)

[17] = Antitumor activity against human MNNG/HOS cells xenografted in mouse assessed as decrease in tumor growth rate at 5 mg/kg, IT administered every other day for 12 days relative to control; format: functional, HOS-TE85; design: scale not given: the % may be the effect or the level left; details: time 12 day

T1 sequence (P09874 whole entry): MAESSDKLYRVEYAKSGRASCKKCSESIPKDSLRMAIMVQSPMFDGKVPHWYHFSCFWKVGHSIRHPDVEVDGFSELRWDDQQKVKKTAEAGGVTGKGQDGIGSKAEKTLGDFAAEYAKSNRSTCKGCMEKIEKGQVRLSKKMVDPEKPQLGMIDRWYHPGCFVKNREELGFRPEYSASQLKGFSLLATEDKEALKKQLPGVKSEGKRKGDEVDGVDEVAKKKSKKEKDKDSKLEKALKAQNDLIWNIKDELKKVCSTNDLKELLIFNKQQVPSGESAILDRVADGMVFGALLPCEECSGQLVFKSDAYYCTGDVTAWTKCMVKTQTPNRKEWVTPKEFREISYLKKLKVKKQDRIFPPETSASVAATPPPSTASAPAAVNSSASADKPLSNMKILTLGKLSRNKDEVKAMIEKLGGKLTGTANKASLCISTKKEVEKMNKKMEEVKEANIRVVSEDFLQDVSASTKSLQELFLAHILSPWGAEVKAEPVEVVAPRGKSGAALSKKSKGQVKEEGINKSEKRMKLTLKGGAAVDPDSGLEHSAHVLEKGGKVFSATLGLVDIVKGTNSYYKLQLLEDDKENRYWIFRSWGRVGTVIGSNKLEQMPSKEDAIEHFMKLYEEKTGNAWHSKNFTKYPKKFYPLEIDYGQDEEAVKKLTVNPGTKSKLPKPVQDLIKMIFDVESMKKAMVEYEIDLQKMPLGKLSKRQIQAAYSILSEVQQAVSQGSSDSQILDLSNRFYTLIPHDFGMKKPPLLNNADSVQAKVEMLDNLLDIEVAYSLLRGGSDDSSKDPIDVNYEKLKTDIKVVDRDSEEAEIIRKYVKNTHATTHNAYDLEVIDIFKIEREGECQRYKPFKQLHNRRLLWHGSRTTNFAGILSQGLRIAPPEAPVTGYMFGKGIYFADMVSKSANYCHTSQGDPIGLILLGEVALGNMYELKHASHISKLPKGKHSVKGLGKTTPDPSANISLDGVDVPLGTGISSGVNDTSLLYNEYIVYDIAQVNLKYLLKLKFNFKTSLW
T2 sequence (Q9UGN5 whole entry): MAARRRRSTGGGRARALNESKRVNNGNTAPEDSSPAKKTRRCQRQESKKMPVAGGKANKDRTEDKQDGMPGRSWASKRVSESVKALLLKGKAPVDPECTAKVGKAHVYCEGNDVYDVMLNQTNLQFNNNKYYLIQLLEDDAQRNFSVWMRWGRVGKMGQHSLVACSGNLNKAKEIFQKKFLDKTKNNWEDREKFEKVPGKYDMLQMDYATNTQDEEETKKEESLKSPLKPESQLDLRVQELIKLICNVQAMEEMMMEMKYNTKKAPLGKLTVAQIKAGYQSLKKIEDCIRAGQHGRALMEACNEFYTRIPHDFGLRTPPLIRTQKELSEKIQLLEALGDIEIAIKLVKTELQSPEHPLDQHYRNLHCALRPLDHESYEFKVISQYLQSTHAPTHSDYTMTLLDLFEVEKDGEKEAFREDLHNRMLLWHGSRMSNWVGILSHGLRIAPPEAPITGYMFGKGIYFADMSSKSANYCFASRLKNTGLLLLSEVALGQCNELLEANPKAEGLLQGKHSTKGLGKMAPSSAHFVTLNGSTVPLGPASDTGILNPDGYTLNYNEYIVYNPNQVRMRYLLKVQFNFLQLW

SMILES: C[C@@H]1CN(c2cc(F)c3c(c2)N(C)C(=O)C32CCN(c3nc4c(c(=O)[nH]3)CCCN4C)CC2)C[C@H](C)O1
bioavailability [1]: 100%

SMILES: COc1ccc(-n2c(SCc3nc(-c4ccc(C)cc4)no3)nnc2-c2ccncc2)cc1
Activity (SW480 [4]): 35% | Activity (SW480 [5]): 33%

SMILES: CS(=O)(=O)c1ccc(-c2nnc(/C=C/c3nnc(-c4ccc(C#N)cc4)o3)n2-c2ccccc2Cl)nc1
Activity [7]: > 15% | Activity [8]: > 15%

SMILES: COc1ccc(C2(CNC(=O)c3ccc(NC(=O)c4ccco4)cc3)CCOCC2)cc1
IC50 [9]: 1900 nM | IC50 [2]: 1800 nM

SMILES: CC(=O)N[C@@H](CCCNC(=N)N)C(=O)N[C@@H](CCC(=O)O)C(=O)N[C@H]1CCn2cc(nn2)-c2cc(C(=O)O)cc(c2)-c2cn(nn2)CC[C@@H](C(=O)N[C@@H](CCC(=O)O)C(N)=O)NC(=O)CNC(=O)[C@H](CC(=O)O)NC(=O)CNC1=O
Kd [11]: 440 nM

SMILES: O=C(Nc1cccc2c(=O)[nH]ccc12)[C@H]1CCCNC1
IC50 [9]: 3 nM | IC50 [2]: > 10000 nM | IC50 [16]: 9 nM

SMILES: CC(=O)N[C@@H](CCCNC(=N)N)C(=O)N[C@@H](CCC(=O)O)C(=O)N[C@H]1CCn2cc(nn2)CCCc2cn(nn2)CC[C@@H](C(=O)N[C@@H](CCC(=O)O)C(N)=O)NC(=O)CNC(=O)[C@H](CC(=O)O)NC(=O)CNC1=O
Kd [11]: 600 nM

SMILES: O=C(Nc1cccc2cccnc12)c1ccc(N2C(=O)[C@@H]3[C@H](C2=O)[C@@H]2C=C[C@H]3C2)cc1
Activity [17]: 73%

Now from value to molecule:

solubility (physchem): 10 µg/mL (≈ 29.4 µM) | IC50 [2]: > 100000 nM | remaining at 0.5 h [3]: 0%
SMILES: COc1ccccc1N1CCN(c2nc3c(c(=O)[nH]2)CCCC3)CC1

IC50 [6]: > 10000 nM | IC50 [2]: > 10000 nM
SMILES: Cc1cc(NCCc2ccc(O)cc2)c2nncn2n1

Ki [10]: 20500 nM
SMILES: CCc1ccc(OCC(=O)Nc2sc(C)c(C)c2C(N)=O)c(F)c1

IC50 [9]: 15 nM
SMILES: COc1ccc(-n2c(SCCCN3C(=O)c4cccc5cccc(c45)C3=O)nnc2-c2ccncc2)cc1

inhibition [12]: 100% | inhibition [13]: 0% | inhibition [14]: 100% | inhibition [15]: 0%
SMILES: COc1cc2ncnc(N3CCC(CN4Cc5ccccc5N(c5ccc(F)c(C#N)c5)C4=O)CC3)c2cc1OC
